Source: patent publication US8703979B2, “Preparation of anticancer-active tricyclic compounds via alkyne coupling reaction” (Taheebo Japan Co., Ltd., priority 2010, dated 2014)

melting point: > 193 °C (dec.)
SMILES: CC(O)c1cc2c(s1)C(=O)c1cccc(O)c1C2=O (stereo not shown) [Example 20, 2-(1-hydroxyethyl)-5-hydroxynaphtho[2,3-b]thiophene-4,9-dione]
